Reference: US20250276999A1, “PEPTIDES FOR PROMOTING HAIR FOLLICLE NEOGENESIS, AND PREVENTION/MITIGATION OF UNTOWARD EFFECTS OF RADIATION TREATMENT” (Trustees of Tufts College, priority 2022, published 2025)
“Also recorded” adds a separate entry of the source.

System: X-ray irradiated and wounded mice
Test: Combined injury murine model (thoracic X-ray irradiation plus wound)
Assay type: in vivo, C57BL/6 mice
Excerpt: The C57BL/6 strain of mice has been utilized extensively for the study of radiation-induced skin injuries. We determined that 16 Gy is the minimal dosage for the induction of radiation burns in C57BL/6 mice that are not repaired within 45 days. Sham irradiated mice without wounds were used as controls for radiation dermatitis, and treated identically as irradiated mice. Wounded mice, without radiation, were used as controls for combined injury.
Animals were irradiated in the RS2000 small animal irradiator. The RS2000 provides a cone-shaped radiation field with irradiation at 12.39-40.50 cm from the X-ray source. For dose measurements, irradiation was performed with the following settings: 160 kVp, 25 mA, 90 s irradiation time and 0.3 mm Cu beam filtration. The approximate HVL provided by the manufacturer was 0.62 mm Cu. The University of Wisconsin Medical Radiation Research Center (UW MRRC) provided eight acrylic mouse phantoms with three (1×1×1 mm) Harshaw thermoluminenscence dosimeter (TLD)-100 microcubes (ThermoElectron Corp., Oakwood Village, OH) embedded in each phantom. The cylindrical phantom had dimensions of 27 mm in diameter (D)×65 mm in length (L) and was stabilized by a cylindrical insert 15 mm (D)×27 mm (L) with a 3 mm thick stand. A custom lead shield was placed on the floor of the irradiator, with the mouse thoracic region ˜43.75 cm from the X-ray source. Dose measurements were conducted twice to account for set-up error and reproducibility. TLDs were processed at UW MRRC using a national standard with an expanded uncertainty (k=2) of 5%. The dose rate was reported for each aperture position 1-4 as an absorbed dose rate to water (ADRW, Gy/min) and the two repeated measurements were averaged.
Mice (12-14 weeks of age) were anesthetized using inhaled anesthesia (isoflurane), and the fur was clipped on the dorsal side of the thoracic region. Two days after fur clipping, mice to be used for combined injury were given acetaminophen (150 mg/kg in 0.5 ml sterile saline) by gavage. Animals were then anesthetized with injected anesthesia (150 mg/kg ketamine/18 mg/kg xylazine) and placed in Lucite jigs for exposure to 16.5 Gy thoracic irradiation in the RS2000 X-ray irradiator as previously described. For combined injury, immediately following thoracic irradiation and while still under anesthesia, the area of the skin was scrubbed with betadine or chlorhexidine, followed by cleaning with an alcohol pad. A 9/16 inch diameter punch biopsy tool was used to create a 1 cm wound in the central dorsal thoracic region, roughly in the center of the field of radiation exposure. The panniculus carnosus muscle and overlying skin will be removed. The wound will be left open to air. The size of the wound approximates 15% of the total body skin surface.
TSN6 peptide (5 μg/day in 50 μl sterile saline) or hepatocyte growth factor (HGF; 3.3 μg/day in 50 μl sterile saline) or vehicle (sterile saline, 50 μl) were injected subcutaneously on days 2, 7 and 10 post-irradiation. Injections were made caudal, adjacent to the irradiated or irradiated/wounded area.
Animals were monitored daily for 85 days post-irradiation for both radiation dermatitis and combined injury models. Radiation dermatitis was separately scored for hair loss, erythema, scale, and ulceration. Scoring for erythema, scale and ulceration were previously described: 0=none; 1=minimal; 2=mild; 3=moderate; 4=marked. Because all animals underwent fur clipping prior to irradiation and wounding, scoring for hair loss was determined as failure to regrow hair in the irradiated areas: 0=none; 1=minimal; 2=mild; 3=moderate; 4=marked. Animals were photographed for the measurement of wounds and for dermatitis scoring. […] Weight was measured as an indication of overall health.

[1] = 16.5 Gy plus wound, s.c. days 2, 7, 10, TSN6 5 μg/day, HGF 3.3 μg/day

“HSPDIQLQKGLTFEPIQIK [TSN6, 19 amino acid peptide derived from multimerin-1, Coiled coil domain]” was tested, and the “time to wound closure in the presence of radiation” value (16.5 Gy plus 9/16 inch wound, TSN6 5 μg/day s.c. days 2, 7, 10, irradiated vehicle ~30 days, no radiation ~14 days) was “about 16 days post-irradiation”, the “combined injury (overall)” value (16.5 Gy plus wound, TSN6 5 μg/day s.c. days 2, 7, 10 (FIG. 7)) was “Mitigation of combined injury” and the “characteristics of radiation dermatitis (hair loss, scale, erythema, ulceration) including combined score” value [1] was “markedly reduced”. For the same sequence, the “rate of wound closure / wound repair” value [1] was “increased the rate of wound closure”, the “radiation dermatitis in images of mice” value (57, 71 and 75/79 days post-irradiation, vs vehicle (FIG. 13)) was “vast improvement; also recorded: improves radiation dermatitis” and the wound closure (79 days post-irradiation (FIG. 13C)) was “full wound closure”. The hair regrowth (79 days post-irradiation, vehicle: no hair regrowth (FIG. 13)) was “hair regrowth; also recorded: regrows pigmented hair”.
